Reference: patent US20240239801A1, “PYRIMIDO[5,4,D]PYRIMIDINE COMPOUNDS, COMPOSITIONS COMPRISING THEM AND USES THEREOF” (Université de Montréal, priority 2021, published 2024)

Legend:
NCI-H358 pERK = test: Phospho-ERK inhibition, AlphaLISA SureFire Ultra p-ERK 1/2; format: cell-based, human; conditions: Table D-2; for NCI-H358 pERK, value in parentheses, % inhibition: % Ymin of pERK IC50 curve
Procedure, shortened: (§1)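 Cells plated in RPMI-1640 with 5% FBS, held overnight, then exposed 1 h to ten-point compound dilutions (top 30 or 10 μM down to 0.33 nM; 0.5% DMSO). Lysates read for p-ERK1/2 (Thr202/Tyr204) by AlphaLISA; % inhibition relative to DMSO after subtracting a 1 μM trametinib background; IC50 from four-parameter fit.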

SW620 pERK = test: as above; format: cell-based, human; conditions: Table D-2; for pERK IC50 curve bottom (Ymin), %: % Ymin of pERK IC50 curve
Procedure, shortened: as §1

SK-MEL30 pERK = test: as above; format: cell-based, human; conditions: Table D-1; for SK-MEL30 pERK, value in parentheses, % inhibition: % Ymin of pERK IC50 curve
Procedure, shortened: as §1

Lovo pERK = test: as above; format: cell-based, human; conditions: Table D-2; for pERK curve Ymin (%): % Ymin of pERK IC50 curve
Procedure, shortened: as §1

CRAF = CRAF (Homo sapiens, UniProt P04049); test: CRAF kinase activity assay (ADP-Glo); format: biochemical; conditions: Table 3
Sequence of CRAF (P04049 whole entry): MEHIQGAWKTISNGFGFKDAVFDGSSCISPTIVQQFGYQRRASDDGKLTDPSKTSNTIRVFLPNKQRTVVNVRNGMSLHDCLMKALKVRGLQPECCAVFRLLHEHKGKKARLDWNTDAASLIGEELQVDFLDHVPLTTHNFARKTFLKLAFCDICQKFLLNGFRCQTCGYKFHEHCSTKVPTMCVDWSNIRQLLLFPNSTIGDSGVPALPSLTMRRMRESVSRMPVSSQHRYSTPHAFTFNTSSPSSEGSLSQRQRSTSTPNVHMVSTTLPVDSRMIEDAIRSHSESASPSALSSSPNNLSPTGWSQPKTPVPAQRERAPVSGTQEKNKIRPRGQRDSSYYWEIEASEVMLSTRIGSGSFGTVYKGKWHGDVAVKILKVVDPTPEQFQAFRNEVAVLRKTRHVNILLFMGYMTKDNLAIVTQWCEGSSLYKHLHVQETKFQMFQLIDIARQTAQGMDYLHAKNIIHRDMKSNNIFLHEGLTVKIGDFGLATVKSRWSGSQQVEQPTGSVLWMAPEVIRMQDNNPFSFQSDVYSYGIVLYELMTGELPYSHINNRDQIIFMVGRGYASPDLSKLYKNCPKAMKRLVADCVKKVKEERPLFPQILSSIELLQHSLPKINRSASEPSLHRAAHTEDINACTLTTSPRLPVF
Procedure, shortened: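 CRAF inhibition was measured by ADP-Glo. 0.375 nM purified GST-tagged CRAF was combined with 75 nM kinase-dead MEK1 substrate and 10 μM ATP in 50 mM HEPES pH 7.5, 10 mM MgCl2, 1 mM EDTA, 0.01% Brij-35 and 2 mM DTT, with nine compound concentrations from 100 nM to 0.01 nM (0.05% DMSO), in 384-well plates for 2 hours at 30° C. Luminescence was read after adding ADP-Glo and Kinase Detection reagents. IC50 came from four-parameter curve fits.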

Row | SMILES | IC50 (NCI-H358 pERK; Homo sapiens, NCI-H358) | NCI-H358 pERK, value in parentheses, % inhibition (NCI-H358 pERK) | IC50 (SW620 pERK; Homo sapiens, SW-620) | IC50 (SK-MEL30 pERK; Homo sapiens, SK-MEL-30) | SK-MEL30 pERK, value in parentheses, % inhibition (SK-MEL30 pERK) | IC50 (Lovo pERK; Homo sapiens, LoVo) | pERK curve Ymin (%) (Lovo pERK) | IC50 (CRAF) | IC50 (NCI-H358 pERK) | IC50 (SW620 pERK) | pERK IC50 curve bottom (Ymin), % (SW620 pERK) | IC50 (SK-MEL30 pERK) | IC50 (Lovo pERK)
1 | Cc1ccc2c(Nc3cccc(Cl)c3F)nccc2c1NC(=O)c1csc2c(N)ncnc12 [Belvarafenib, reference compound] | 30 to 300 nM | (−122) % | 30 to 300 nM | < 30 nM | (−45) % | < 30 nM | (−12) % | – | – | – | – | – | –
2 | Nc1cccc2c1ncn2-c1ncc2ncnc(Nc3c(F)ccc(NS(=O)(=O)c4cccc(Cl)c4Cl)c3F)c2n1 [Example 80] | – | – | – | – | – | – | – | < 10 nM | – | – | – | – | –
3 | Cc1c(F)cccc1S(=O)(=O)Nc1ccc(F)c(Nc2ncnc3cnc(-n4cc(C(=O)N(C)Cc5ccncc5)c5ccccc54)nc23)c1F [Example 98] | – | (20) % | – | – | (10) % | – | (27) % | 10 to 50 nM | 30 to 300 nM | 30 to 300 nM | (36) % | < 30 nM | 30 to 300 nM
4 | COc1ccc(S(=O)(=O)Nc2ccc(F)c(Nc3ncnc4cnc(-n5cnc6c(N)cccc65)nc34)c2F)c(C)c1Cl [Example 112] | – | (−8) % | – | – | (6) % | – | (−1) % | 10 to 50 nM | 30 to 300 nM | 30 to 300 nM | (11) % | < 30 nM | 30 to 300 nM
5 | Cc1c(F)cccc1S(=O)(=O)Nc1ccc(F)c(Nc2ncnc3cnc(-n4cnc5c(-c6cccnc6)cccc54)nc23)c1F [Example 114] | > 300 nM | (−4) % | > 300 nM | 30 to 300 nM | (−9) % | < 30 nM | (4) % | 10 to 50 nM | – | – | (−13) % | – | –
6 | O=S(=O)(Nc1ccc(F)c(Nc2ncnc3cnc(-n4cnc5c(N6CCC7(CCCO7)CC6)cccc54)nc23)c1F)c1cccc(Cl)c1Cl [Example 129] | – | (−3) % | – | – | (16) % | – | (−2) % | 10 to 50 nM | 30 to 300 nM | > 300 nM | (−7) % | < 30 nM | 30 to 300 nM
